Data reported in PMC6378217, “The lysyl oxidase like 2/3 enzymatic inhibitor, PXS‐5153A, reduces crosslinks and ameliorates fibrosis” (Journal of Cellular and Molecular Medicine, 2018).

Legend:
[1] = system: Sodium Channel, Site 2; test: Eurofins Hit Profiling Screen; type: binding; settings: 10 μmol/L
[2] = system: Glutamate, NMDA, Phencyclidine; test: Eurofins Hit Profiling Screen; type: binding; settings: 10 μmol/L
[3] = system: Imidazoline I2, Central; test: Eurofins Hit Profiling Screen; type: binding; settings: 10 μmol/L
[4] = molecular target: T1, LOXL2 (Homo sapiens, UniProt Q9Y4K0); test: Amplex-Red fluorometric enzymatic activity assay, recombinant human LOXL2; type: biochemical; design: purchased R&D Systems
T1 sequence (Q9Y4K0 26-774): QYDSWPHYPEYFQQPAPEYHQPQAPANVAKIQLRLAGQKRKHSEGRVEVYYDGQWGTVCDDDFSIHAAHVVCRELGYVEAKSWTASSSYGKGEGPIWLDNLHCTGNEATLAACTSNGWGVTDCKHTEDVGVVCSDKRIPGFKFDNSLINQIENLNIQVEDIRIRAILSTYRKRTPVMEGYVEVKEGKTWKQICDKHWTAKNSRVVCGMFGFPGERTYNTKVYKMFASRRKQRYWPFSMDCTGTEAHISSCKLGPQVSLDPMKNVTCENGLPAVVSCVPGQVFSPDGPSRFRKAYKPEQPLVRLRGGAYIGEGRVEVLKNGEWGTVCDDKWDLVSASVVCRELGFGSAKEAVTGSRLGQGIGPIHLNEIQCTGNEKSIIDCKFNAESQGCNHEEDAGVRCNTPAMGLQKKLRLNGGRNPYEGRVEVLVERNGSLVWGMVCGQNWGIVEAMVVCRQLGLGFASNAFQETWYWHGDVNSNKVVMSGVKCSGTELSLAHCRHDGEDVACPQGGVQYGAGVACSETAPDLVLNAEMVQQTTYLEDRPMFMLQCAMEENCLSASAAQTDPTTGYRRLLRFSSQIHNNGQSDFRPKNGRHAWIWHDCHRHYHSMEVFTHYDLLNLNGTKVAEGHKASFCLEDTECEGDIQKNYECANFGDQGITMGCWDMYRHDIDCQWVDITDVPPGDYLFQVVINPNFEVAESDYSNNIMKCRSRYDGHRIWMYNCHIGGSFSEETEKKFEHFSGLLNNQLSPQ
Method: The measurement of the enzymatic activity of all lysyl oxidase family members was based on the detection of hydrogen peroxide with an Amplex‐Red oxidation assay, as described in Zhou et al26 Recombinant human semicarbazide sensitive amine oxidase (SSAO/VAP1), diamine oxidase (DAO) and monoamine oxidases A and B (MAO‐A and MAO‐B) assays were performed as previously described.27 For detailed enzymatic procedures, see supporting information.
The measurement of the enzymatic activity of all lysyl oxidase family members was based on the detection of hydrogen peroxide with an Amplex-Red oxidation assay, as described in Zhou et al.[1]; miniaturised in 384 well format, with the appropriate combination of substrate and assay buffer for each individual enzyme. After a 30 minute pre-incubation of the enzyme at 37 °C with the test compound (or with different incubation times for the time-dependency assay), one volume of reaction mixture containing 120 μM Amplex Red (AR) (Life Technologies), 1.5 U/mL horseradish peroxidase (HRP) (Sigma-Aldrich) and the specific substrate was added to each sample. The relative fluorescence units (RFU) were then measured every 2.5 minutes for 30 minutes at 37°C, excitation 565 nm and emission 590, on a BMG Clariostar Microplate Reader. All the substrates were used at concentrations corresponding to their Km towards the corresponding enzyme, or with a range of different concentrations for the substrate competition experiments.
Lysyl oxidases assay buffer contained 1.2 M urea, 50 mM sodium borate buffer, pH 8.2 and 100 µM β-aminoproprionitrile (BAPN, Sigma-Aldrich) was used for low control.
Recombinant human LOXL1 was expressed and purified from cDNA (GeneArt) and 10 mM putrescine was used as substrate. Recombinant human and mouse LOXL2 (R&D Systems) were challenged with 5 mM putrescine (Sigma-Aldrich) as the substrate. Rat and dog recombinant LOXL2 were amplified and purified in house from HEK-293 clones kindly provided by Dr. Fernando Rodríguez Pascual, Madrid University, and used in the same conditions as for the human form. 2 mM putrescine was used as the substrate for recombinant human LOXL3 (R&D Systems) and LOXL4 (Dr. Fernando Rodríguez Pascual, university of Madrid, Spain) assays.

[5] = molecular target: T1, LOXL2; test: Collagen oxidation assay; type: biochemical; design: purchased R&D Systems; settings: 20 nmol/L rhLOXL2, different concentrations of PXS-5153A, slope at 20-40 minute
Method: Collagen oxidation assay was based on the release of hydrogen peroxide as previously described27 and detailed in the supporting information. Briefly, collagen was combined with rhLOXL2 with or without the pan‐lysyl oxidase inhibitor BAPN (β‐aminoproprionitrile, 100 μmol/L, Sigma‐Aldrich) or PXS‐5153A. An Amplex reaction mixture was added into each well. The slope per minute of the kinetic curves for each sample was calculated using MARS data analysis software (BMG labtech) in the linear phase (between the 20 and 40 minute time points).
Collagen oxidation assay was based on the release of hydrogen peroxide as described previously described. In a 384 black well plate, 25 μL of collagen (rat tail, type I, Thermo Fisher, 1.5 mg/mL in 50 mM sodium borate buffer, pH 8.2) was combined with 25 μL rhLOXL2 (R&D Systems) with or without the pan-lysyl oxidase inhibitor BAPN (100 μM, Sigma-Aldrich) or PXS-5153A. A reaction mixture using AR (120 μM; Life Technologies), HRP (1.5 U/mL; Sigma-Aldrich) was prepared in 50 mM sodium borate buffer. […] The relative fluorescence units (RFU) were read every 1 minute for 3 hours at 37°C, excitation 565 nm and emission 590 (Clariostar, BMG labtech). The slope per minute of the kinetic curves for each sample was calculated using MARS data analysis software (BMG labtech) in the linear phase (between the 20-40 minute time points).

[6] = system: Calcium Channel L-Type, Dihydropyridine; test: Eurofins Hit Profiling Screen; type: binding, rat; settings: 10 μmol/L
[7] = molecular target: Adrenergic α1A (Rattus norvegicus, UniProt P43140); test: Eurofins Hit Profiling Screen; type: binding; settings: 10 μmol/L
[8] = 30 minute pre-incubation at 37 °C, average of at least three experiments

Sequence of Adrenergic α1A (P43140 whole entry): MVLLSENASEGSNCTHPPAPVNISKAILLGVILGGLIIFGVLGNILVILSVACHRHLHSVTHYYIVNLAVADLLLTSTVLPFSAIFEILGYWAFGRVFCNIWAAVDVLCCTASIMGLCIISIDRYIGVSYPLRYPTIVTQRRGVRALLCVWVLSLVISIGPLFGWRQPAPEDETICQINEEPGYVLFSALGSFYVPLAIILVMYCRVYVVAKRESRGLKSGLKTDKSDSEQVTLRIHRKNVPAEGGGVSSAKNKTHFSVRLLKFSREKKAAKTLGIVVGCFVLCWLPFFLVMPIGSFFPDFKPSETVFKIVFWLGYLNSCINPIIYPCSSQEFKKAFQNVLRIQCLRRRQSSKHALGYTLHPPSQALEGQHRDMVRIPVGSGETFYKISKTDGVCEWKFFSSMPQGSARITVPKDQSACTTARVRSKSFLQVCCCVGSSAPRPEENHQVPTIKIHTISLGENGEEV

Cc1c(-c2cccc(S(=O)(=O)N(C)C)c2)c2ncccc2n1C/C(F)=C/CN.Cl.Cl [PXS-5153A]
% inhibition [1]: 57% | % inhibition [2]: 3% | % inhibition [3]: 57% | IC50 [4, 8]: 21 nM | pIC50 ± SD [4, 8]: 7.7 ± 0.23 | selectivity for LOXL2 over LOX ([4]; LOXL2 over LOX): > 40 fold | selectivity for LOXL2 over LOXL1 ([4]; LOXL2 over LOXL1): > 40 fold | selectivity over other related amine oxidases ([4]; LOXL2 over other related amine oxidases): > 700 fold | rate of inactivation (kinact) ([4]; mechanism-based irreversible inhibition, enzyme not given): 0.20 min⁻¹ | Ki ([4]; mechanism-based irreversible inhibition, enzyme not given, read-out: apparent binding constant (Ki)): 1010 nM | collagen oxidation [5]: impeding collagen oxidation | % inhibition [6]: 80% | % inhibition [7]: 20%
